Test results reported in patent US5798372A, “Method for preventing onset of restenosis after angioplasty employing a retinoid” (Allergan, priority 1997, dated 1998).

How the values were obtained:
[1] = tested on: smooth muscle cells (canine aorta); assay: Serum (1%)-induced smooth muscle cell proliferation, 3H-thymidine incorporation; format: cell-based; settings: for IC50: Canis lupus familiaris; for rank order potency on smooth muscle cells: from Table 2
Procedure: (§1) The effect of 1% serum on DNA synthesis by endothelial or smooth muscle cells using ^3 H-thymidine incorporation was measured. For measuring the effectiveness of retinoids in inhibiting endothelial or smooth muscle cell proliferation induced by certain mitogens, i.e., serotonin or β-FGF the indicated concentrations were added to the media instead of 1% serum. Primary cells isolated from canine aorta were used for these studies. Unlike the typical cell lines (e.g. NIH 3T3 cells, etc.) 6-7 weeks are required to isolate and grow these primary cells in sufficient number to perform a single experiment. For the following studies, the primary cells (passages 2-4) were plated on 35×10 mm tissue culture dishes in 10% fetal bovine serum (FBS) and incubated. After 72 hours of growth the medias was replaced with 0.1% FBS for synchronization and incubated for additional 72 hours. Then 1% serum was added and incubated for 20 hours followed by the addition of 1μCi of ^3 H-thymidine. Four hours after the addition of 3H-thymidine the DNA was precipitated and the amount of ^3 H-thymidine incorporated was measured. This value is reported as the serum or serotonin or β-FGF stimulated value for cellular proliferation and is expressed as a percentage of baseline ^3 H-thymidine incorporation.
(§2) To examine the antiproliferative effect of retinoids, they were dissolved in 100% ethanol and then added at the indicated final concentrations. The compounds were added at the time of adding 1% serum or serotonin or β-FGF to stimulate the cells. (The maximal final concentration of ethanol in culture media was 1% which is non-cytotoxic to endothelial or smooth muscle cells). After 20 hours of incubation with retinoids and 1% serum or serotonin or β-FGF, the ^3 H-thymidine incorporation was measured.
(§3) In this experimental dosages ranging between 0.01 and 100 μM were evaluated for the effect of AGN 191183 on cell growth.
(§4) The other retinoids, disclosed above, were also tested for their effect on smooth muscle and endothelial cell growth at the same dosages as for AGN 191183. Table 2 reports the ED50 for each of these retinoids.

[2] = tested on: endothelial cells (canine aorta); assay: Serum (1%)-induced endothelial cell proliferation, 3H-thymidine incorporation; format: cell-based; settings: for order of potency for endothelial cells: from Table 2
Procedure: as §1, §2, §3, §4

[3] = tested on: smooth muscle cells (canine aorta); assay: Serotonin-induced smooth muscle cell proliferation, 3H-thymidine incorporation; format: cell-based; settings: Canis lupus familiaris, Table 3, read-out: ED50 FOR SMOOTH MUSCLE CELLS, Serotonin
Procedure: as §1
as §2, with “(The maximal final concentration of ethanol in culture media was 1% which is non-cytotoxic to endothelial or smooth muscle cells).” left out
(§5) Certain of the retinoids were then tested for mitogen-induced cellular proliferation, utilizing serotonin (5HT) and β-FGF as such mitogens. In this testing, as reported in Table 3, below, the same dosages were evaluated for their effect on mitogen-induced cellular proliferation (The results are reported as ED50 and compared to the ED50 for serum-induced smooth muscle and endothelial cell growth).

[4] = tested on: endothelial cells (canine aorta); assay: Serotonin-induced endothelial cell proliferation, 3H-thymidine incorporation; format: cell-based; settings: Canis lupus familiaris, Table 3, read-out: ED50 FOR ENDOTHELIAL Cells, Serotonin
Procedure: as §1
as §2, with “(The maximal final concentration of ethanol in culture media was 1% which is non-cytotoxic to endothelial or smooth muscle cells).” left out
as §5

[5] = tested on: smooth muscle cells (canine aorta); assay: β-FGF-induced smooth muscle cell proliferation, 3H-thymidine incorporation; format: cell-based; settings: Canis lupus familiaris, Table 3, read-out: ED50 FOR SMOOTH MUSCLE CELLS, β-FGF
Procedure: as §1
as §2, with “(The maximal final concentration of ethanol in culture media was 1% which is non-cytotoxic to endothelial or smooth muscle cells).” left out
as §5

[6] = tested on: endothelial cells (canine aorta); assay: β-FGF-induced endothelial cell proliferation, 3H-thymidine incorporation; format: cell-based; settings: Canis lupus familiaris, Table 3, read-out: ED50 FOR ENDOTHELIAL Cells, β-FGF
Procedure: as §1
as §2, with “(The maximal final concentration of ethanol in culture media was 1% which is non-cytotoxic to endothelial or smooth muscle cells).” left out
as §5

RAR and RXR receptor = assay: RAR vs RXR agonist activity (retinoid selectivity); format: biochemical; settings: Table 2; RAR selective agonist preferably has RAR vs RXR activity ratio of at least 5
From the text: (Of course, pan agonists show agonist activity at both the RAR and RXR receptor.)
A pan agonist will have activity at both of the RAR and RXR receptor, e.g. similar potency at the RAR and RXR receptor.

[7] = tested on: smooth muscle cells (canine aorta); assay: Serum (1%)-induced smooth muscle cell proliferation, 3H-thymidine incorporation; format: cell-based
[8] = tested on: endothelial cells (canine aorta); assay: Serum (1%)-induced endothelial cell proliferation, 3H-thymidine incorporation; format: cell-based; settings: Canis lupus familiaris, 1% serum, 100% = 1739 ± 71 cpm/10^6 cells, serum stimulated 1246 ± 91, read-out: % ENDOTHELIAL (cell growth, % of baseline 3H-thymidine incorporation)
[9] = serum induced, Table 3, read-out: ED50 FOR SMOOTH MUSCLE CELLS, Serum
[10] = serum induced, Table 2, read-out: ED50 FOR SMOOTH MUSCLE CELLS (concentration at which proliferation is inhibited by 50%)
[11] = Canis lupus familiaris, Endothelial cell, serum induced, Table 2, read-out: ED50 FOR ENDOTHELIAL CELL (concentration at which proliferation is inhibited by 50%)
[12] = read-out: ED50 FOR SMOOTH MUSCLE CELLS (concentration at which proliferation is inhibited by 50%)
[13] = Canis lupus familiaris, Endothelial cell, read-out: ED50 FOR ENDOTHELIAL CELL (concentration at which proliferation is inhibited by 50%)

## CC1=C(/C=C/C(C)=C/C=C/C(C)=C\C(=O)O)C(C)(C)CCC1 [AGN 190013, (2Z,4E,6E,8E)-3,7-dimethyl-9-(2,6,6-trimethyl-1-cyclohexen-1-yl)-2,4,6,8-nonatetraenoic acid]
[1]; [9]
  IC50: 7.4 µM
[2]; Canis lupus familiaris, Endothelial cell, serum induced, Table 3, read-out: ED50 FOR ENDOTHELIAL Cells, Serum
  IC50: 31.5 µM
[3]
  IC50: 5 µM
[4]
  IC50: 0.0092 µM
[5]
  IC50: > 100 µM
[6]
  IC50: 0.009 µM

## CC1=C(/C=C/C#Cc2ccc(C(=O)O)cc2)C(C)(C)CCC1 [AGN 190121, (E)-4-[4-(2,6,6-trimethyl-1-cyclohexen-1-yl)but-2-en-1-ynyl] benzoic acid]
[1]; [10]
  IC50: 46 µM
[2]; [11]
  IC50: 23 µM
RAR and RXR receptor
  SELECTIVITY: RAR

## CC1(C)CCC(C)(C)c2cc(C#Cc3ccc(C(=O)O)cc3)ccc21 [AGN 190205, 4-[2-(5,6,7,8-tetrahydro-5,5,8,8-tetramethyl-2-naphthalenyl)ethynyl] benzoic acid]
[1]; [12]
  IC50: 8.95 µM
[2]; [13]
  IC50: 6.8 µM
[2]; serum induced
  order of potency for endothelial cells: AGN 192013>AGN 190205=AGN 191183
RAR and RXR receptor
  SELECTIVITY: RAR

## C/C(=C\c1ccc(C(=O)O)cc1)c1ccc2c(c1)C(C)(C)CCC2(C)C [AGN 191183, (E)-4-[2-(5,6,7,8-tetrahydro-5,5,8,8-tetramethyl-2-naphthalenyl)-1-propen-1-yl] benzoic acid]
[1]; [12]
  IC50: 0.03 µM
[1]; serum induced
  rank order potency on smooth muscle cells: AGN 191659=191183>AGN 192327>AGN 191985>AGN 192326
[1]; smooth muscle and endothelial cells (also A2), serum induced
  effectiveness for inhibiting the growth of smooth muscle and endothelial cells: most effective retinoid for inhibiting the growth of both smooth muscle and endothelial cells
[2]; [13]
  IC50: 6.15 µM
[2]; serum induced
  order of potency for endothelial cells: AGN 192013>AGN 190205=AGN 191183
RAR and RXR receptor
  SELECTIVITY: RAR
[7]; Canis lupus familiaris, 0.01 μM, 1% serum, 100% = 2108 ± 165 cpm/10^6 cells, serum stimulated 725 ± 170, read-out: % SMOOTH MUSCLE (cell growth, % of baseline 3H-thymidine incorporation)
  activity at 0.01 µM: 376 ± 17%
[7]; Canis lupus familiaris, 0.05 μM, 1% serum, 100% = 2108 ± 165 cpm/10^6 cells, serum stimulated 725 ± 170, read-out: % SMOOTH MUSCLE (cell growth, % of baseline 3H-thymidine incorporation)
  activity at 0.05 µM: 348 ± 95%
[7]; Canis lupus familiaris, 0.1 μM, 1% serum, 100% = 2108 ± 165 cpm/10^6 cells, serum stimulated 725 ± 170, read-out: % SMOOTH MUSCLE (cell growth, % of baseline 3H-thymidine incorporation)
  activity at 0.1 µM: 219 ± 22%
[7]; Canis lupus familiaris, 0.5 μM, 1% serum, 100% = 2108 ± 165 cpm/10^6 cells, serum stimulated 725 ± 170, read-out: % SMOOTH MUSCLE (cell growth, % of baseline 3H-thymidine incorporation)
  activity at 0.5 µM: 205 ± 17%
[7]; Canis lupus familiaris, 1 μM, 1% serum, 100% = 2108 ± 165 cpm/10^6 cells, serum stimulated 725 ± 170, read-out: % SMOOTH MUSCLE (cell growth, % of baseline 3H-thymidine incorporation)
  activity at 1 µM: 185 ± 10%
[7]; Canis lupus familiaris, 5 μM, 1% serum, 100% = 2108 ± 165 cpm/10^6 cells, serum stimulated 725 ± 170, read-out: % SMOOTH MUSCLE (cell growth, % of baseline 3H-thymidine incorporation)
  activity at 5 µM: 182 ± 3%
[7]; Canis lupus familiaris, 10 μM, 1% serum, 100% = 2108 ± 165 cpm/10^6 cells, serum stimulated 725 ± 170, read-out: % SMOOTH MUSCLE (cell growth, % of baseline 3H-thymidine incorporation)
  activity at 10 µM: 126 ± 18%
[7]; Canis lupus familiaris, 50 μM, 1% serum, 100% = 2108 ± 165 cpm/10^6 cells, serum stimulated 725 ± 170, read-out: % SMOOTH MUSCLE (cell growth, % of baseline 3H-thymidine incorporation)
  activity at 50 µM: 137 ± 25%
[7]; Canis lupus familiaris, 100 μM, 1% serum, 100% = 2108 ± 165 cpm/10^6 cells, serum stimulated 725 ± 170, read-out: % SMOOTH MUSCLE (cell growth, % of baseline 3H-thymidine incorporation)
  activity at 100 µM: 77 ± 28%
[8]; 0.1 μM
  activity at 0.1 µM: 959 ± 115%
[8]; 0.5 μM
  activity at 0.5 µM: 840 ± 108%
[8]; 1 μM
  activity at 1 µM: 815 ± 171%
[8]; 5 μM
  activity at 5 µM: 686 ± 40%
[8]; 10 μM
  activity at 10 µM: 406 ± 32%
[8]; 50 μM
  activity at 50 µM: 17 ± 2%
[8]; 100 μM
  activity at 100 µM: 9.3 ± 2.3%

## C/C(=C\c1ccc(C(=O)O)s1)c1cc2c(cc1C)C(C)(C)CCC2(C)C [AGN 191659, (E)-5-[2-(5,6,7,8-tetrahydro-3,5,5,8,8-pentamethyl-2-naphthalenyl)-1-propen-1-yl] thiophene-2-carboxylic acid]
[1]; [10]
  IC50: 0.038 µM
[1]; serum induced
  rank order potency on smooth muscle cells: AGN 191659=191183>AGN 192327>AGN 191985>AGN 192326
[2]; [11]
  IC50: 39 µM
RAR and RXR receptor
  SELECTIVITY: PAN AGONIST

## C/C(=C\c1cc(C(=O)O)cs1)c1cc2c(cc1C)C(C)(C)CCC2(C)C [AGN 191701, reference compound]
[2]; serum induced, Table 2, read-out: ED50 FOR ENDOTHELIAL CELL (concentration at which proliferation is inhibited by 50%)
  IC50: 28.5 µM
RAR and RXR receptor
  SELECTIVITY: RXR
[7]; [10]
  IC50: 18 µM

## CC1=C(/C=C/C(C)=C\C=C\C(C)=C\C(=O)O)C(C)(C)CCC1 [AGN 192013, (2E,4E,6Z,8E)-3,7-dimethyl-9-(2,6,6-trimethyl-1-cyclohexen-1-yl)-2,4,6,8-nonatetraenoic acid, reference compound]
[1]; [10]
  IC50: > 100 µM
[1]; [9]
  IC50: > 100 µM
[2]; [11]
  IC50: 2.25 µM
[2]; serum induced
  order of potency for endothelial cells: AGN 192013>AGN 190205=AGN 191183
[3]
  IC50: 0.41 µM
[4]
  IC50: 0.16 µM
[5]
  IC50: > 100 µM
[6]
  IC50: 26.5 µM

## CC(C)(C)c1ccc(C#Cc2ccc(C(=O)O)cc2)cc1OC1CCCCO1 (stereo not shown) [AGN 192326, 4-[2-(3-(2-tetrahydropyranyl)oxy)-(4-(1,1-dimethylethyl)phenyl)ethynyl]benzoic acid]
[1]; [10]
  IC50: 6.5 µM
[1]; serum induced
  rank order potency on smooth muscle cells: AGN 191659=191183>AGN 192327>AGN 191985>AGN 192326
[2]; [11]
  IC50: 16.5 µM
RAR and RXR receptor
  SELECTIVITY: RAR

## CC(C)(C)c1ccc(C#Cc2ccc(C(=O)O)cn2)cc1OC1CCCCO1 (stereo not shown) [AGN 192327, 6-[2-(3-(2-tetrahydropyranyl)oxy)-(4-(1,1-dimethylethyl)phenyl)ethynyl]-3-nicotinic acid]
[1]; [10]
  IC50: 4 µM
[1]; serum induced
  rank order potency on smooth muscle cells: AGN 191659=191183>AGN 192327>AGN 191985>AGN 192326
[2]; [11]
  IC50: 29 µM
RAR and RXR receptor
  SELECTIVITY: RAR
